Measurements taken from patent US9969694B2, “N-(arylalkyl)-N′-pyrazolyl-urea, thiourea, guanidine and cyanoguanidine compounds as TrkA kinase inhibitors” (Array BioPharma Inc., priority 2012, dated 2018).

Experiments:
Experiment in all cases: Off-Target Kinase Profiling
Assay type in all cases: biochemical
Conditions in all cases: 10 μM; ATP near Km
IRAK1 = biological target: T1, IRAK1 (Homo sapiens, UniProt P51617)
T1 construct: purchased Millipore, Inc. (KinaseProfiler service)
How it was run: (§1)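 ATP ≈ Km; compound 10 μM; duplicates averaged; POC.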

Axl = biological target: T2, Axl (Homo sapiens, UniProt P30530)
T2 construct: purchased Millipore (KinaseProfiler service)
How it was run: as §1

PKCepsilon = biological target: T3, PKCepsilon (Homo sapiens, UniProt Q02156)
T3 construct: purchased Millipore, Inc. (KinaseProfiler service)
How it was run: as §1

mTOR/FKBP12 = biological target: T4, mTOR/FKBP12 (Homo sapiens, UniProt P42345)
T4 construct: purchased Millipore, Inc. (KinaseProfiler service)
How it was run: as §1

NEK2 = biological target: T5, NEK2 (Homo sapiens, UniProt P51955)
T5 construct: purchased Millipore, Inc. (KinaseProfiler service)
How it was run: as §1

IKKbeta = biological target: T6, IKKbeta (Homo sapiens, UniProt O14920)
T6 construct: purchased Millipore, Inc. (KinaseProfiler service)
How it was run: as §1

HIPK3 = biological target: T7, HIPK3 (Homo sapiens, UniProt Q9H422)
T7 construct: purchased Millipore, Inc. (KinaseProfiler service)
How it was run: as §1

Flt3 = biological target: T8, Flt3 (Homo sapiens, UniProt P36888)
T8 construct: purchased Millipore, Inc. (KinaseProfiler service)
How it was run: as §1

MKNK2 = biological target: T9, MKNK2 (Homo sapiens, UniProt Q9HBH9)
T9 construct: purchased Millipore, Inc. (KinaseProfiler service)
T9 sequence (Q9HBH9 whole entry): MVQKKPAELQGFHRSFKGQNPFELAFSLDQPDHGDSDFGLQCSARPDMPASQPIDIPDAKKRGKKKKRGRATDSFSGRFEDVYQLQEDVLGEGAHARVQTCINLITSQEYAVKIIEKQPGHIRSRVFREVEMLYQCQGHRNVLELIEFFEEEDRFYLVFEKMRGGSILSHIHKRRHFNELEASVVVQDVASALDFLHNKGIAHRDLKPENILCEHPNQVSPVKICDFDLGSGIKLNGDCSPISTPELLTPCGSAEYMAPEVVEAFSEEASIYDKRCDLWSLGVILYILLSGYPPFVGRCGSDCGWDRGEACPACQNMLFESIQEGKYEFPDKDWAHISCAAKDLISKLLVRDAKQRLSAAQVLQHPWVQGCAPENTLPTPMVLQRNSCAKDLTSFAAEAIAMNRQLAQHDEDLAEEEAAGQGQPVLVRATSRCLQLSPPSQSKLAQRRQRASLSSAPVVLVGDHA
How it was run: as §1

CAMK4 = biological target: T10, CAMK4 (Homo sapiens, UniProt Q16566)
T10 construct: purchased Millipore (KinaseProfiler service)
How it was run: as §1

PAK4 = biological target: T11, PAK4 (Homo sapiens, UniProt O96013)
T11 construct: purchased Millipore, Inc. (KinaseProfiler service)
How it was run: as §1

FGFR1 = biological target: T12, FGFR1 (Homo sapiens, UniProt P11362)
T12 construct: purchased Millipore, Inc. (KinaseProfiler service)
How it was run: as §1

Rsk1 = biological target: T13, Rsk1 (Homo sapiens, UniProt Q15418)
T13 construct: purchased Millipore, Inc. (KinaseProfiler service)
How it was run: as §1

KDR = biological target: T14, KDR (Homo sapiens, UniProt P35968)
T14 construct: purchased Millipore, Inc. (KinaseProfiler service)
How it was run: as §1

GRK7 = biological target: T15, GRK7 (Homo sapiens, UniProt Q8WTQ7)
T15 construct: purchased Millipore, Inc. (KinaseProfiler service)
How it was run: as §1

NEK3 = biological target: T16, NEK3 (Homo sapiens, UniProt P51956)
T16 construct: purchased Millipore, Inc. (KinaseProfiler service)
How it was run: as §1

PKAC-alpha = biological target: T17, PKAC-alpha (Homo sapiens, UniProt P17612)
T17 construct: purchased Millipore, Inc. (KinaseProfiler service)
How it was run: as §1

CAMK2d = biological target: T18, CAMK2d (Homo sapiens, UniProt Q13557)
T18 construct: purchased Millipore (KinaseProfiler service)
How it was run: as §1

ARK5 = biological target: T19, ARK5 (Homo sapiens, UniProt O60285)
T19 construct: purchased Millipore (KinaseProfiler service)
How it was run: as §1

CHK2 = biological target: T20, CHK2 (Homo sapiens, UniProt O96017)
T20 construct: purchased Millipore, Inc. (KinaseProfiler service)
T20 sequence (O96017 whole entry): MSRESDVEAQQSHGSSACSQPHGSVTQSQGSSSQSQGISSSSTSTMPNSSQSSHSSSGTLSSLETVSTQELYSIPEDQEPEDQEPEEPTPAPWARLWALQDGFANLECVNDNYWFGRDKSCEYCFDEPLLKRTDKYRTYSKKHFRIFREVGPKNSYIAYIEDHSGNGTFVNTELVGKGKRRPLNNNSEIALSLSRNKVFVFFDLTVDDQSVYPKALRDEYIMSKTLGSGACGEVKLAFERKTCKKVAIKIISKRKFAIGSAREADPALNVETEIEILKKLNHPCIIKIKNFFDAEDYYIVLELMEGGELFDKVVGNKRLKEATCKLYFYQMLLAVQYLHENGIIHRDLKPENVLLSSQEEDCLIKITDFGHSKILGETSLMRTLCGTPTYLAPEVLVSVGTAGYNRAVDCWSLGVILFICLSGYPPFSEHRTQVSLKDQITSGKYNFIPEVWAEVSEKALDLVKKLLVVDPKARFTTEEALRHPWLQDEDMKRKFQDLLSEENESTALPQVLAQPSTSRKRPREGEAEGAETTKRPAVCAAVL
How it was run: as §1

PKCbetaI = biological target: T21, PKCbetaI (Homo sapiens, UniProt P05771)
T21 construct: purchased Millipore, Inc. (KinaseProfiler service)
How it was run: as §1

ROCK-I = biological target: T22, ROCK-I (Homo sapiens, UniProt Q13464)
T22 construct: purchased Millipore, Inc. (KinaseProfiler service)
T22 sequence (Q13464 whole entry): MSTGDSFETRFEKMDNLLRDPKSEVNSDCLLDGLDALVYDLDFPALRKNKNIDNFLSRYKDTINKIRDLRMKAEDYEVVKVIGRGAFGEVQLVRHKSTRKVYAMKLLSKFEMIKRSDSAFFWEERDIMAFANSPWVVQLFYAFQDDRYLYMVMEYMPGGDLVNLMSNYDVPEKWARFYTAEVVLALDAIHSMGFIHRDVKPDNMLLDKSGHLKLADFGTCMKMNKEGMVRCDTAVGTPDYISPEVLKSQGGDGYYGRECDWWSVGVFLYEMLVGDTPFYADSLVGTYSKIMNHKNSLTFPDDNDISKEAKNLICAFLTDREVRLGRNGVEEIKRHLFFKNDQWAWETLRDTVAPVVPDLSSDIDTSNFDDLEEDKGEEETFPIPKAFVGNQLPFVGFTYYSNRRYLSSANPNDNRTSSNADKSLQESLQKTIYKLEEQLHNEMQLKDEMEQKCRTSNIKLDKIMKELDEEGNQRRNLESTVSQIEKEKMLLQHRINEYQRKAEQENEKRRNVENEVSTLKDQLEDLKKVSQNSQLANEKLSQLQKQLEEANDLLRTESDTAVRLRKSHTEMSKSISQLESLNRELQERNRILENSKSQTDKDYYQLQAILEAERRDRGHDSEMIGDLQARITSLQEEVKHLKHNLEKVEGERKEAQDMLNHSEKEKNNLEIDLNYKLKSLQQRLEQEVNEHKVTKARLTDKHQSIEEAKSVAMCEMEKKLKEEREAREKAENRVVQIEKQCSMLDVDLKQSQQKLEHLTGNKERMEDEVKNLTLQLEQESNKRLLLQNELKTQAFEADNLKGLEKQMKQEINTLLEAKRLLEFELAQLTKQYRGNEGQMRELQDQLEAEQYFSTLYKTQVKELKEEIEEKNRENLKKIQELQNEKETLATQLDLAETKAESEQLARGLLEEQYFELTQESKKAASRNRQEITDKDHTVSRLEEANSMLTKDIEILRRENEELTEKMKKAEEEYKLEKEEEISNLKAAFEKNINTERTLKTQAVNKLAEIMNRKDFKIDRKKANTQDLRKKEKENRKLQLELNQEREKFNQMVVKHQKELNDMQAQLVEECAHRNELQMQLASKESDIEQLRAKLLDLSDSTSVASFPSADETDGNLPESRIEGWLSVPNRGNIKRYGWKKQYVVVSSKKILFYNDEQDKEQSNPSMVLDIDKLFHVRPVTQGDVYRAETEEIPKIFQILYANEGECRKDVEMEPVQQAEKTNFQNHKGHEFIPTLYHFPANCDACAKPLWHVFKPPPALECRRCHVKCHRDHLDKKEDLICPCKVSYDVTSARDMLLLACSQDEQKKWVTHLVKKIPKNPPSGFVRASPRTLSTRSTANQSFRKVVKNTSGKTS
How it was run: as §1

ERK2 = biological target: T23, ERK2 (Homo sapiens, UniProt P28482)
T23 construct: purchased Millipore, Inc. (KinaseProfiler service)
How it was run: as §1

PrKX = biological target: T24, PrKX (Homo sapiens, UniProt P51817)
T24 construct: purchased Millipore, Inc. (KinaseProfiler service)
How it was run: as §1

IR Activated = biological target: T25, IR Activated (Homo sapiens, UniProt P06213)
T25 construct: purchased Millipore, Inc. (KinaseProfiler service)
How it was run: as §1

GRK6 = biological target: T26, GRK6 (Homo sapiens, UniProt P43250)
T26 construct: purchased Millipore, Inc. (KinaseProfiler service)
How it was run: as §1

p38gamma = biological target: T27, p38gamma (Homo sapiens, UniProt P53778)
T27 construct: purchased Millipore, Inc. (KinaseProfiler service)
How it was run: as §1

AKT2 = biological target: T28, AKT2 (Homo sapiens, UniProt P31751)
T28 construct: purchased Millipore (KinaseProfiler service)
How it was run: as §1

DCAMKL2 = biological target: T29, DCAMKL2 (Homo sapiens, UniProt Q8N568)
T29 construct: purchased Millipore, Inc. (KinaseProfiler service)
How it was run: as §1

CK1gamma1 = biological target: T30, CK1gamma1 (Homo sapiens, UniProt Q9HCP0)
T30 construct: purchased Millipore, Inc. (KinaseProfiler service)
How it was run: as §1

TrkB = biological target: T31, TrkB (Homo sapiens, UniProt Q16620)
T31 construct: purchased Millipore, Inc. (KinaseProfiler service)
How it was run: as §1

DAPK1 = biological target: T32, DAPK1 (Homo sapiens, UniProt P53355)
T32 construct: purchased Millipore, Inc. (KinaseProfiler service)
How it was run: as §1

PKCgamma = biological target: T33, PKCgamma (Homo sapiens, UniProt P05129)
T33 construct: purchased Millipore, Inc. (KinaseProfiler service)
How it was run: as §1

PKCdelta = biological target: T34, PKCdelta (Homo sapiens, UniProt Q05655)
T34 construct: purchased Millipore, Inc. (KinaseProfiler service)
How it was run: as §1

MLK1 = biological target: T35, MLK1 (Homo sapiens, UniProt P80192)
T35 construct: purchased Millipore, Inc. (KinaseProfiler service)
How it was run: as §1

EphA2 = biological target: T36, EphA2 (Homo sapiens, UniProt P29317)
T36 construct: purchased Millipore, Inc. (KinaseProfiler service)
T36 sequence (P29317 24-976): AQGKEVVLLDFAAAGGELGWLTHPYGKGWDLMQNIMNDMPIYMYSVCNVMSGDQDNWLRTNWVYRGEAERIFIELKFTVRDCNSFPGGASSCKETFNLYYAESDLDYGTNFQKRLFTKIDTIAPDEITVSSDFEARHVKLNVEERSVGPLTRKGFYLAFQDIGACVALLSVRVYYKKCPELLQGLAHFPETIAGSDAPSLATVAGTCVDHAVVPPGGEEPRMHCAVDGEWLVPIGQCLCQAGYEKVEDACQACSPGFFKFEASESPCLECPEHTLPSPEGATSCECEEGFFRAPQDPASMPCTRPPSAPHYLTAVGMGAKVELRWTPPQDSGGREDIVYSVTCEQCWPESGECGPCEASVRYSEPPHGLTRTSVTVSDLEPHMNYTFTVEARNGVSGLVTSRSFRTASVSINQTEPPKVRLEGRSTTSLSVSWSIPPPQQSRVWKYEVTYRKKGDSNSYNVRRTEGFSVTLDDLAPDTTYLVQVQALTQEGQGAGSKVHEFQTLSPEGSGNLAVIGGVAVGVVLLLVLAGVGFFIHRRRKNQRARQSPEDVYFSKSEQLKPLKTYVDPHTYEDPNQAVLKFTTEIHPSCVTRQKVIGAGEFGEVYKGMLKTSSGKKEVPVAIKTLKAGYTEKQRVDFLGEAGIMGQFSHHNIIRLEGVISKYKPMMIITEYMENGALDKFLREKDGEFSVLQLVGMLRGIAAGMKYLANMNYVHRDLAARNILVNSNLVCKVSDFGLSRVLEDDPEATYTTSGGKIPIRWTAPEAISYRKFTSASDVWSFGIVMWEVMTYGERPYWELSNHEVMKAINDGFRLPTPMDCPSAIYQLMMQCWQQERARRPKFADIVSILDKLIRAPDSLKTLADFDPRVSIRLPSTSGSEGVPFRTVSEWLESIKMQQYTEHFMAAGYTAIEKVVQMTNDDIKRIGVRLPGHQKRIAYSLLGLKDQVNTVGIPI
How it was run: as §1

CDK5/p35 = biological target: T37, CDK5/p35 (Homo sapiens, UniProt Q00535)
T37 construct: purchased Millipore, Inc. (KinaseProfiler service)
How it was run: as §1

PAK6 = biological target: T38, PAK6 (Homo sapiens, UniProt Q9NQU5)
T38 construct: purchased Millipore, Inc. (KinaseProfiler service)
T38 sequence (Q9NQU5 whole entry): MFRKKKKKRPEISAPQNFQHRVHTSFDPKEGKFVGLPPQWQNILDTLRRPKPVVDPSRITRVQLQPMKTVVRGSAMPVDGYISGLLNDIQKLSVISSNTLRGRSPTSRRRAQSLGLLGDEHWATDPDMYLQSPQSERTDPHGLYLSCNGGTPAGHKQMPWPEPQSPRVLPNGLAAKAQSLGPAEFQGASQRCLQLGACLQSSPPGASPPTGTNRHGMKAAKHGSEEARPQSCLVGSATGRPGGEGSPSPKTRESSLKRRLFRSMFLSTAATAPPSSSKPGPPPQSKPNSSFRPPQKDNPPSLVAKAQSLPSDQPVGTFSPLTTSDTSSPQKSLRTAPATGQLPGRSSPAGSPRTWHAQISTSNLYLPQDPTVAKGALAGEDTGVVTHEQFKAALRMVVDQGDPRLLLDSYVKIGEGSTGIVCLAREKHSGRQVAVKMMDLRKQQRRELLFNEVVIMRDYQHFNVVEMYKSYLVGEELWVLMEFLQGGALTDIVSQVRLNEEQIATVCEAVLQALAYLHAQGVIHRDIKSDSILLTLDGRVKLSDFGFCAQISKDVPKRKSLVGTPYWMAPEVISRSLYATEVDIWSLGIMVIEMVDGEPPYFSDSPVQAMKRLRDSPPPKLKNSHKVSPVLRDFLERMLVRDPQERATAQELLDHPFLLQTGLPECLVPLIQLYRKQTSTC
How it was run: as §1

Rsk2 = biological target: T39, Rsk2 (Homo sapiens, UniProt P51812)
T39 construct: purchased Millipore, Inc. (KinaseProfiler service)
How it was run: as §1

KIT = biological target: T40, KIT (Homo sapiens, UniProt P10721)
T40 construct: purchased Millipore, Inc. (KinaseProfiler service)
T40 sequence (P10721 26-976): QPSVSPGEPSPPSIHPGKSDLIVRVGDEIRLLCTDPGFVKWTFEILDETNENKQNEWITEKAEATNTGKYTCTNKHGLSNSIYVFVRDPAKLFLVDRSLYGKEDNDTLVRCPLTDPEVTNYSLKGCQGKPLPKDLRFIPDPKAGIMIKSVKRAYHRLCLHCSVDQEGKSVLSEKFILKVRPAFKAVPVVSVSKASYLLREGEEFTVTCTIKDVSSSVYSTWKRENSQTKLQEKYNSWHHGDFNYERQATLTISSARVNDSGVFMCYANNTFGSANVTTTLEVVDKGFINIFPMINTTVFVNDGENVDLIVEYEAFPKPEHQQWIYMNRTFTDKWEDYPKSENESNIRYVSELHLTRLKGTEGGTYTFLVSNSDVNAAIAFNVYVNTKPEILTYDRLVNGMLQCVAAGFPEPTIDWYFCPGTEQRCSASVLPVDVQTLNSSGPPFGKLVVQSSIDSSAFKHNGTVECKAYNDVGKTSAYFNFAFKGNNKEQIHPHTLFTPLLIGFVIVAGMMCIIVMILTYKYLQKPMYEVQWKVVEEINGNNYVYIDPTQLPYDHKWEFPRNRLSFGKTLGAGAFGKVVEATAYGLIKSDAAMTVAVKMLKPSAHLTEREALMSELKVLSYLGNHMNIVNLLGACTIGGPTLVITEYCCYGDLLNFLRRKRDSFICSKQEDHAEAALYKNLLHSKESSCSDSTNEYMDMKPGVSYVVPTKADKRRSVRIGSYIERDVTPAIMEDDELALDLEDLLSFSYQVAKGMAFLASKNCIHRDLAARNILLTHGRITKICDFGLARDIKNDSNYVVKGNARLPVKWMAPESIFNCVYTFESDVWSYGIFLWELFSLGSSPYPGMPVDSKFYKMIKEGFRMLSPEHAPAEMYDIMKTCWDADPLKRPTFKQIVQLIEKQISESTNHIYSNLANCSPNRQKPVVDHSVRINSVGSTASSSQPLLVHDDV
How it was run: as §1

PAK5 = biological target: T41, PAK5 (Homo sapiens, UniProt Q9P286)
T41 construct: purchased Millipore, Inc. (KinaseProfiler service)
How it was run: as §1

## COCc1ccc(C(F)(F)F)c(CNC(=O)Nc2c(C)c(-c3cnn(C)c3)nn2-c2ccccc2)c1 [Example 33, 1-(1′,4-dimethyl-1-phenyl-1H,1′H-[3,4′-bipyrazol]-5-yl)-3-(5-(methoxymethyl)-2-(trifluoromethyl)benzyl)urea]
IRAK1
  Avg POC IRAK1: 113 POC
Axl
  Avg POC Axl: 117 POC
PKCepsilon
  Avg POC PKCepsilon: 92 POC
mTOR/FKBP12
  Avg POC mTOR/FKBP12: 109.5 POC
NEK2
  Avg POC NEK2: 96 POC
IKKbeta
  Avg POC IKKbeta: 120.5 POC
HIPK3
  Avg POC HIPK3: 102 POC
Flt3
  Avg POC Flt3: 78.5 POC
MKNK2
  Avg POC MKNK2: 101.5 POC
CAMK4
  Avg POC CAMK4: 149 POC
PAK4
  Avg POC PAK4: 108.5 POC
FGFR1
  Avg POC FGFR1: 96 POC
Rsk1
  Avg POC Rsk1: 119.5 POC
KDR
  Avg POC KDR: 139.5 POC
GRK7
  Avg POC GRK7: 103 POC
NEK3
  Avg POC NEK3: 115.5 POC
PKAC-alpha
  Avg POC PKAC-alpha: 139.5 POC
CAMK2d
  Avg POC CAMK2d: 118 POC
ARK5
  Avg POC ARK5: 85.5 POC
CHK2
  Avg POC CHK2: 138 POC
PKCbetaI
  Avg POC PKCbetaI: 111.5 POC
ROCK-I
  Avg POC ROCK-I: 120.5 POC
ERK2
  Avg POC ERK2: 117 POC
PrKX
  Avg POC PrKX: 146.5 POC
IR Activated
  Avg POC IR Activated: 103.5 POC
GRK6
  Avg POC GRK6: 99 POC
p38gamma
  Avg POC p38gamma: 107.5 POC
AKT2
  Avg POC AKT2: 199 POC
DCAMKL2
  Avg POC DCAMKL2: 254.5 POC
CK1gamma1
  Avg POC CK1gamma1: 105.5 POC
TrkB
  Avg POC TrkB: 0 POC
DAPK1
  Avg POC DAPK1: 141.5 POC
PKCgamma
  Avg POC PKCgamma: 98 POC
PKCdelta
  Avg POC PKCdelta: 93 POC
MLK1
  Avg POC MLK1: 105.5 POC
EphA2
  Avg POC EphA2: 126.5 POC
CDK5/p35
  Avg POC CDK5/p35: 108.5 POC
PAK6
  Avg POC PAK6: 147.5 POC
Rsk2
  Avg POC Rsk2: 146 POC
KIT
  Avg POC KIT: 94 POC
PAK5
  Avg POC PAK5: 144.5 POC

## COCc1ccc(C2CCC2)c(CNC(=O)Nc2c(C)c(-c3cnc(C)nc3)nn2-c2ccccc2)c1 [Example 10, 1-(2-cyclobutyl-5-(methoxymethyl)benzyl)-3-(4-methyl-3-(2-methylpyrimidin-5-yl)-1-phenyl-1H-pyrazol-5-yl)urea]
IRAK1
  Avg POC IRAK1: 101 POC
Axl
  Avg POC Axl: 104.5 POC
PKCepsilon
  Avg POC PKCepsilon: 83.5 POC
mTOR/FKBP12
  Avg POC mTOR/FKBP12: 97.5 POC
NEK2
  Avg POC NEK2: 98 POC
IKKbeta
  Avg POC IKKbeta: 104.5 POC
HIPK3
  Avg POC HIPK3: 95.5 POC
Flt3
  Avg POC Flt3: 54 POC
MKNK2
  Avg POC MKNK2: 98 POC
CAMK4
  Avg POC CAMK4: 144.5 POC
PAK4
  Avg POC PAK4: 102.5 POC
FGFR1
  Avg POC FGFR1: 68 POC
Rsk1
  Avg POC Rsk1: 96.5 POC
KDR
  Avg POC KDR: 97.5 POC
GRK7
  Avg POC GRK7: 105 POC
NEK3
  Avg POC NEK3: 97.5 POC
PKAC-alpha
  Avg POC PKAC-alpha: 132 POC
CAMK2d
  Avg POC CAMK2d: 126.5 POC
ARK5
  Avg POC ARK5: 87 POC
CHK2
  Avg POC CHK2: 93 POC
PKCbetaI
  Avg POC PKCbetaI: 104.5 POC
ROCK-I
  Avg POC ROCK-I: 114 POC
ERK2
  Avg POC ERK2: 104 POC
PrKX
  Avg POC PrKX: 73.5 POC
IR Activated
  Avg POC IR Activated: 99 POC
GRK6
  Avg POC GRK6: 97.5 POC
p38gamma
  Avg POC p38gamma: 102.5 POC
AKT2
  Avg POC AKT2: 142 POC
DCAMKL2
  Avg POC DCAMKL2: 96.5 POC
CK1gamma1
  Avg POC CK1gamma1: 79 POC
TrkB
  Avg POC TrkB: 0.5 POC
DAPK1
  Avg POC DAPK1: 98 POC
PKCgamma
  Avg POC PKCgamma: 101 POC
PKCdelta
  Avg POC PKCdelta: 91.5 POC
MLK1
  Avg POC MLK1: 100.5 POC
EphA2
  Avg POC EphA2: 103 POC
CDK5/p35
  Avg POC CDK5/p35: 97 POC
PAK6
  Avg POC PAK6: 95.5 POC
Rsk2
  Avg POC Rsk2: 129.5 POC
KIT
  Avg POC KIT: 102 POC
PAK5
  Avg POC PAK5: 96.5 POC
